# Measurements: ChEMBL document CHEMBL5346896, “Development of indolealkylamine derivatives as potential multi-target agents for COVID-19 treatment” (Eur J Med Chem, 2023)
# Active and inactive are the calls of the source. No cut-off for these calls is given here.
# Legend:
# [1] = organism: Homo sapiens; experiment: Selectivity ratio of pKi for displacement of 2-[125I]iodomelatonin from human melatonin MT1 receptor stably expressed in human HEK293 cell membrane to pKi for displacement of 2-[125I]iodomelatonin from human melatonin MT2 receptor stably expressed in human HEK293 cell membrane
# [2] = target: T1, Melatonin receptor type 1B (Homo sapiens, UniProt P49286); experiment: Displacement of 2-[125I]iodomelatonin from human melatonin MT2 receptor stably expressed in human HEK293 cell membrane assessed as inhibition constant incubated for 120 mins by rapid filtration based competition binding assay; assay type: cell membranes
# T1 sequence (P49286 whole entry): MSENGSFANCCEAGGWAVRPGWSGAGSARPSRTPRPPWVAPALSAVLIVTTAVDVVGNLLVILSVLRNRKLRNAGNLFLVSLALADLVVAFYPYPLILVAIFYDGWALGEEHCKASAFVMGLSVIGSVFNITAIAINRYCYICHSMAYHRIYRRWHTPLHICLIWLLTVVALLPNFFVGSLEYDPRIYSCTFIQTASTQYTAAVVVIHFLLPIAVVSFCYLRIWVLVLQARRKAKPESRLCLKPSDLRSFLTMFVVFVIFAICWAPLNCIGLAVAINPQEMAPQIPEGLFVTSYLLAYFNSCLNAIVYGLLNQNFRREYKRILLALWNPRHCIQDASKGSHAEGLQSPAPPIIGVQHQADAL
# [3] = target: T2, Melatonin receptor type 1A (Homo sapiens, UniProt P48039); experiment: Displacement of 2-[125I]iodomelatonin from human melatonin MT1 receptor stably expressed in HEK293 cell membrane assessed as inhibition constant incubated for 120 mins by rapid filtration based competition binding assay; assay type: cell membranes
# T2 sequence (P48039 whole entry): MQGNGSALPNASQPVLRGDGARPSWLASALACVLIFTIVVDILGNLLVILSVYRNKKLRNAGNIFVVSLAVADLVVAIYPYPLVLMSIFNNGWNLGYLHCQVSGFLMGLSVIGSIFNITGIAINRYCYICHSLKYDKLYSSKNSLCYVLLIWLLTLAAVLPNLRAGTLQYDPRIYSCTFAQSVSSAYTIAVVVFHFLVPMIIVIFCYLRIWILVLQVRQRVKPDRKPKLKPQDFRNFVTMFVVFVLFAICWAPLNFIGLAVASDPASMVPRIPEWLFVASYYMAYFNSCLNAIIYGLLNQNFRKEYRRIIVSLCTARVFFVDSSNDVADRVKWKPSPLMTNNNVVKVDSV
# [4] = target: Angiotensin-converting enzyme 2 (Homo sapiens) (UniProt Q9BYF1); experiment: Inhibition of recombinant ACE2 (unknown origin) exopeptidase activity using fluorogenic substrate at 0.5 to 10 uM incubated for 1 hrs by fluorescence based analysis; conditions: dose 0.5-10 µM
# Sequence of Angiotensin-converting enzyme 2 (Homo sapiens) (Q9BYF1 18-805 limits assumed): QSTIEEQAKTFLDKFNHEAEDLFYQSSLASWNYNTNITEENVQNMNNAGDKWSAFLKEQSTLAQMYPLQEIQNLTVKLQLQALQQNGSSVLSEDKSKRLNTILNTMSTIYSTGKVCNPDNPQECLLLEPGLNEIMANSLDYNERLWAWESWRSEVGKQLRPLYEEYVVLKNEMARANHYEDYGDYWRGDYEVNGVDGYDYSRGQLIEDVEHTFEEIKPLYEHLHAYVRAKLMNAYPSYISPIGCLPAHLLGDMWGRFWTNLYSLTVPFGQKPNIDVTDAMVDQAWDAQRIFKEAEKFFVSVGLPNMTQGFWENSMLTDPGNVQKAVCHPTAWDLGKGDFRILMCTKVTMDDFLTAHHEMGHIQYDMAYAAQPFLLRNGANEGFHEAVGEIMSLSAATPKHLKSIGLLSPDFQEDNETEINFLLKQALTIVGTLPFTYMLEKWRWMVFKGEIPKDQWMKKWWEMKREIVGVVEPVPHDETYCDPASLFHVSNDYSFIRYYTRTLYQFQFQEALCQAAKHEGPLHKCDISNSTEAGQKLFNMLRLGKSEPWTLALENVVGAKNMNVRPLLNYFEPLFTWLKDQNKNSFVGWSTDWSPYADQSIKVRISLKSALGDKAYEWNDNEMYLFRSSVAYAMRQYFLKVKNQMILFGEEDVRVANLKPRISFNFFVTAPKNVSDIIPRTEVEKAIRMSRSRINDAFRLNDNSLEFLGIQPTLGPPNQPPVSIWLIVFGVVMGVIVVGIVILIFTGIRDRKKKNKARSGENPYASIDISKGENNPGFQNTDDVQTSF
# [5] = target: T2, Melatonin receptor type 1A; experiment: Partial agonist activity at human melatonin MT1 receptor expressed in HEK293 cells co-transfected with Galphai9 chimera construct assessed as stimulation of inositol phosphate production by HTRF based assay; assay type: functional, cell-based
# [6] = target: T1, Melatonin receptor type 1B; experiment: Partial agonist activity at human melatonin MT2 receptor expressed in HEK293 cells co-transfected with Galphai9 chimera construct assessed as stimulation of inositol phosphate production by HTRF based assay; assay type: functional, cell-based
# [7] = target: Spike glycoprotein/Angiotensin-converting enzyme 2 (Severe acute respiratory syndrome coronavirus 2) (UniProt Q9BYF1+P0DTC2); experiment: Inhibition of d2-labelled SARS-CoV-2 spike protein RBD-terbium labelled SNAP tagged human ACE2 interaction transfected in HEK293 cells at 100 uM preincubated with cells for 1 hrs followed by RBD-d2 addition and measured after 2 hrs by TR-FRET assay relative to control; assay type: cell-based; conditions: time 3.0 hrs
# [8] = target: Angiotensin-converting enzyme 2 (Homo sapiens) (UniProt Q9BYF1); experiment: Inhibition of recombinant ACE2 (unknown origin) exopeptidase activity using fluorogenic substrate at 0.5 to 10 uM incubated for 1 hrs by fluorescence based analysis relative to control; conditions: dose 0.5-10 µM
# [9] = target: T2, Melatonin receptor type 1A; experiment: Inverse agonist activity at human melatonin MT1 receptor expressed in HEK293 cells co-transfected with Galphai9 chimera construct assessed as stimulation of inositol phosphate production by HTRF based assay; assay type: functional, cell-based
# [10] = organism: Homo sapiens; experiment: Inhibition of CAMKII (unknown origin) using syntide-2 as substrate assessed as maximum efficacy at 50 uM incubated for 30 mins by spectrophotometric analysis relative to control
# [11] = system: Vero; experiment: Cytotoxicity against African green monkey Vero cells infected with SARS-CoV-2 assessed as effect on cell viability; assay type: toxicity, cell-based; conditions: chlorocebus sabaeus
# [12] = target: Replicase polyprotein 1ab (Severe acute respiratory syndrome coronavirus 2) (UniProt P0DTD1); experiment: Inhibition of SARS-CoV-2 main protease transfected in HEK293T cells co-transfected with gain of signal Src and Tat-Luc reporter construct at 1 uM measured 48 hrs post transfection by luciferase based analysis relative to control; assay type: cell-based
# [13] = Inhibition of CAMKII (unknown origin) using syntide-2 as substrate assessed as maximum efficacy incubated for 30 mins by spectrophotometric analysis; set-up: species or system Homo sapiens
# [14] = system: HEK-293T; experiment: Cytotoxicity against HEK293T cells expressing human ACE2 assessed as effect on cell viability; assay type: toxicity, cell-based
# [15] = system: Vero; experiment: Cytotoxicity against African green monkey Vero cells assessed as effect on cell viability; assay type: toxicity, cell-based; conditions: chlorocebus sabaeus
# [16] = system: SARS-CoV-2; experiment: Antiviral activity against SARS-CoV-2 infected in African green monkey Vero cells assessed as inhibition of viral replication at 1 uM preincubated with cells for 1 hrs followed by viral infection by FISH-flow quantification analysis; assay type: functional, organism-based; conditions: Severe acute respiratory syndrome coronavirus 2
# [17] = system: SARS-CoV-2; experiment: Antiviral activity against SARS-CoV-2 infected in African green monkey Vero cells assessed as inhibition of viral replication at 10 uM preincubated with cells for 1 hrs followed by viral infection by FISH-flow quantification analysis; assay type: functional, organism-based; conditions: Severe acute respiratory syndrome coronavirus 2
# [18] = system: SARS-CoV-2; experiment: Antiviral activity against SARS-CoV-2 assessed as inhibition of viral replication; assay type: functional, organism-based; conditions: Severe acute respiratory syndrome coronavirus 2
Compound,Ratio pKi [1],Ki [2],Ki [3],inhibition [4],inhibition [7],Imax [10],further results
COC(=O)NCCc1c(C(O)c2ccc(F)cc2)[nH]c2ccc(OC)cc12 (centres undefined),0.94,0.741 µM,1.82 µM,inactive,–,–,EC50 [5]: 3.16 µM; EC50 [6]: 0.257 µM
CC(=O)NCCc1c(C(O)c2ccc(Cl)cc2)[nH]c2ccccc12 (centres undefined),0.99,4.37 µM,4.47 µM,inactive,20%,–,–
CC(=O)NCC(=O)N[C@@H](CC(=O)O)C(=O)N[C@@H](Cc1ccc(O)cc1)C(=O)N[C@@H](CO)C(=O)N[C@@H](Cc1cnc[nH]1)C(=O)N[C@H]1CSSC[C@@H](C(=O)N[C@H](C(=O)N[C@@H](Cc2ccc(O)cc2)C(=O)N2CCC[C@H]2C(=O)N[C@@H](CC(=O)O)C(=O)N2CCC[C@H]2C(=O)N[C@@H](CCC(=O)O)C(=O)NCC(=O)NCC(=O)NCC(N)=O)[C@@H](C)O)NC(=O)[C@H](CCCCN)NC(=O)[C@H](Cc2c[nH]c3ccccc23)NC(=O)[C@H](Cc2c[nH]c3ccccc23)NC(=O)[C@@H]2CCCN2C(=O)[C@H](Cc2ccc(O)cc2)NC(=O)[C@H](Cc2ccc(O)cc2)NC(=O)[C@H](CCCNC(=N)N)NC(=O)[C@H](CC(C)C)NC(=O)[C@@H]2CCCN2C(=O)[C@H](CO)NC1=O,–,–,–,–,–,–,inhibition [8]: 100%
COc1ccc(C(O)c2[nH]c3ccc(OC)cc3c2CCNC(C)=O)cc1 (centres undefined),0.8,0.427 µM,7.59 µM,inactive,20%,–,–
CN1CC(=O)NC(CCc2c(C(O)c3ccccc3N)[nH]c3ccccc23)C1=O (centres undefined),0.92,17 µM,41.7 µM,–,–,–,–
O=C(NCCc1c(C(O)c2ccccc2)[nH]c2ccccc12)C(F)(F)F (centres undefined),0.94,1.15 µM,2.51 µM,–,–,–,EC50 [9]: < 10 µM
COC(=O)NCCc1c(C(O)c2ccccc2)[nH]c2ccccc12 (centres undefined),0.81,2 µM,22.9 µM,–,–,–,–
COc1ccc2cccc(CCNC(C)=O)c2c1,–,–,–,–,–,20%,–
COC(=O)NCCc1c(C(O)c2ccccc2)[nH]c2ccc(OC)cc12 (centres undefined),–,0.191 µM,0.891 µM,inactive,20%,40%,Activity [11]: Non-Toxic; inhibition [12]: > 70%; EC50 [13]: ~25 µM; Activity [14]: Non-Toxic; Activity [15]: Non-Toxic; EC50 [5]: < 10 µM; Activity [16]: inactive; EC50 [6]: < 10 µM; Activity [17]: Active
COc1ccc2[nH]c(C(O)c3ccc(Cl)cc3)c(CCNC(C)=O)c2c1 (centres undefined),–,0.0513 µM,0.513 µM,inactive,35%,40%,Activity [11]: Non-Toxic; inhibition [12]: < 20%; EC50 [13]: ~25 µM; Activity [14]: Non-Toxic; Activity [15]: Non-Toxic; Activity [16]: inactive; Activity [17]: inactive
COC(=O)NCCc1c(C(O)c2ccc(OC)cc2F)[nH]c2ccc(OC)cc12 (centres undefined),1.07,4.9 µM,2.04 µM,inactive,–,–,EC50 [5]: < 10 µM; EC50 [6]: < 10 µM
COc1ccc(C(O)c2[nH]c3ccc(OC)cc3c2CCNC(C)=O)c(F)c1 (centres undefined),0.79,0.295 µM,6.76 µM,inactive,–,–,–
CCC(=O)NCC[C@@H]1CCc2ccc3c(c21)CCO3,–,–,–,–,–,20%,–
O=C(Oc1cncc(Cl)c1)c1cccc2[nH]ccc12,–,–,–,–,–,–,IC50 [18]: 2.8 µM
CC(=O)NCCc1c(C(O)c2ccccc2)[nH]c2ccccc12 (centres undefined),0.93,1 µM,2.75 µM,–,–,–,–
COC(=O)NCCc1c(C(O)c2ccc(OC)cc2)[nH]c2ccc(OC)cc12 (centres undefined),0.94,66.1 µM,110 µM,inactive,20%,–,–
COC(=O)NCCc1c(C(O)c2ccc(Cl)cc2)[nH]c2ccccc12 (centres undefined),0.87,5.25 µM,25.1 µM,–,–,–,–
COc1ccc2[nH]c(C(O)c3ccc(F)cc3)c(CCNC(C)=O)c2c1 (centres undefined),0.98,4.57 µM,5.37 µM,inactive,20%,40%,EC50 [13]: ~25 µM; EC50 [5]: < 10 µM; EC50 [6]: < 10 µM
COc1ccc2[nH]c(C(O)c3ccccc3)c(CCNC(C)=O)c2c1 (centres undefined),0.98,0.977 µM,1.26 µM,inactive,20%,–,EC50 [5]: 0.525 µM; EC50 [6]: 0.224 µM
COc1ccc2[nH]cc(CCNC(C)=O)c2c1,–,–,–,–,–,20%,–
